In ChEMBL document CHEMBL1127383, “Improved binding affinity for cyclophilin A by a cyclosporin derivative singly modified at its effector domain” (J Med Chem, 1994):

Tests used:
[1] = species: Mus musculus; test: Compound was evaluated for in vitro immunosuppressive activity in the mouse mixed lymphocyte reaction (MLR-M); type: functional
[2] = Compound was evaluated for in vitro immunosuppressive activity in the interleukin-2 reporter gene assay (IL2-RG); type: functional
[3] = target: Peptidyl-prolyl cis-trans isomerase A (Homo sapiens, UniProt P62937); test: Compound was evaluated for in vitro binding affinity to cyclophilin A (CyP-A)
Sequence of Peptidyl-prolyl cis-trans isomerase A (P62937 whole entry): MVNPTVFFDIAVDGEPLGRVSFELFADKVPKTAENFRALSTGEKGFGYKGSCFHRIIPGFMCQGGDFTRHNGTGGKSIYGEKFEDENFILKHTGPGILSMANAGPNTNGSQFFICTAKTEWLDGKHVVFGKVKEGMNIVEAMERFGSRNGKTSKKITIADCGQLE

Compound | IC50 [1] [nM] | IC50 [2] [nM] | IC50 [3] [nM]
C/C=C/C[C@@H](C)[C@@H](O)[C@H]1C(=O)NC(CC)C(=O)N(C)CC(=O)N(C)[C@@H](C[C@@H](C)CC)C(=O)N[C@@H](C(C)C)C(=O)N(C)[C@@H](CC(C)C)C(=O)N[C@@H](C)C(=O)N[C@H](C)C(=O)N(C)[C@@H](CC(C)C)C(=O)N(C)[C@@H](CC(C)C)C(=O)N(C)C(C(C)C)C(=O)N1C (single isomer, unassigned) | 45 | 17 | 2.3
C/C=C/C[C@@H](C)[C@@H](O)[C@H]1C(=O)N[C@@H](CC)C(=O)N(C)CC(=O)N(C)[C@@H](C[C@@H](C)CC)C(=O)N[C@@H](C(C)C)C(=O)N(C)[C@@H](CC(C)C)C(=O)N[C@@H](C)C(=O)N[C@H](C)C(=O)N(C)[C@@H](CC(C)C)C(=O)N(C)[C@@H](CC(C)C)C(=O)N(C)[C@@H](C(C)C)C(=O)N1C | 46 | 14 | 16
